Source: PMC9030254, “Target Hopping from Protein Kinases to PXR: Identification of Small-Molecule Protein Kinase Inhibitors as Selective Modulators of Pregnane X Receptor from TüKIC Library” (Cells, 2022)

How the values were obtained:
Assay in all cases: Kinase profiling
Assay type in all cases: biochemical
[1] = biological target: T1, VRK2 (Homo sapiens, UniProt Q86Y07)
T1 construct: purchased ProQinase (Freiburg, Germany)
Method: (§1) The analysis was performed by ProQinase (Freiburg, Germany).

[2] = biological target: T2, BRSK1 (Homo sapiens, UniProt Q8TDC3)
T2 construct: purchased ProQinase (Freiburg, Germany)
T2 sequence (Q8TDC3 1-778): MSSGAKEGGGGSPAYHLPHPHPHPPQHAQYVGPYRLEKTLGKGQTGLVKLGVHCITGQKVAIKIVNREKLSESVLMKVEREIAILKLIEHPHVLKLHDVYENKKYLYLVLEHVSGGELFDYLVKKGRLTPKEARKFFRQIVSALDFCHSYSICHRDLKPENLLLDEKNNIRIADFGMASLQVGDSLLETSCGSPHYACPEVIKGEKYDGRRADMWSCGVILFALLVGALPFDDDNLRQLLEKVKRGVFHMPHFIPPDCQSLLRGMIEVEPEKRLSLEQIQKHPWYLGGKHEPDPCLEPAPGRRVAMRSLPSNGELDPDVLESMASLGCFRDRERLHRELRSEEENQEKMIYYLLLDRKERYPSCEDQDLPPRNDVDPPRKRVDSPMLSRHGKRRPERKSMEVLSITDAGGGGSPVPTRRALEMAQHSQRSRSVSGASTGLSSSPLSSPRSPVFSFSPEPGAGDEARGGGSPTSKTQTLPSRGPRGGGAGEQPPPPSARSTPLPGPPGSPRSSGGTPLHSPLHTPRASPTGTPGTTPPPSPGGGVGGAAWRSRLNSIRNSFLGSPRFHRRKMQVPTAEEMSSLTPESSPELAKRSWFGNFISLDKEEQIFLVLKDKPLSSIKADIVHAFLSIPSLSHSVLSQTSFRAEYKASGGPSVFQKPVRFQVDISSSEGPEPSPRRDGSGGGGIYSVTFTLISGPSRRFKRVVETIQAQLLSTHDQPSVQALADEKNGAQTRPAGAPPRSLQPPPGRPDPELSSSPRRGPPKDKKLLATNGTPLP
Method: as §1

[3] = biological target: T3, MEK5 (Homo sapiens, UniProt Q13163)
T3 construct: purchased ProQinase (Freiburg, Germany)
T3 sequence (Q13163 1-448): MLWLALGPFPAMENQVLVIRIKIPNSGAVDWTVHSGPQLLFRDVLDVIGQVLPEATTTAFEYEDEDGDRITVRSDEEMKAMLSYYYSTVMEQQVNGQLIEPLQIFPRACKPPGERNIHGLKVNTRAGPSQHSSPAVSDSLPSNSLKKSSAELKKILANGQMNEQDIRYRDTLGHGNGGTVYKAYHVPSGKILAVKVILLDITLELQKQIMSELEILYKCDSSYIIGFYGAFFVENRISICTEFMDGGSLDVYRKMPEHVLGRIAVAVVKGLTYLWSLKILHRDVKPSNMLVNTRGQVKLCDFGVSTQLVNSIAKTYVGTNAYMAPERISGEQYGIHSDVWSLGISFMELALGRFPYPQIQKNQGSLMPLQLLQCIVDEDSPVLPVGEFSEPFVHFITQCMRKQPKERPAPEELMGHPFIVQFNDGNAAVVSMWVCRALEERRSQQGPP
Method: as §1

[4] = biological target: T4, MASTL (Homo sapiens, UniProt Q96GX5)
T4 construct: purchased ProQinase (Freiburg, Germany)
T4 sequence (Q96GX5 1-879): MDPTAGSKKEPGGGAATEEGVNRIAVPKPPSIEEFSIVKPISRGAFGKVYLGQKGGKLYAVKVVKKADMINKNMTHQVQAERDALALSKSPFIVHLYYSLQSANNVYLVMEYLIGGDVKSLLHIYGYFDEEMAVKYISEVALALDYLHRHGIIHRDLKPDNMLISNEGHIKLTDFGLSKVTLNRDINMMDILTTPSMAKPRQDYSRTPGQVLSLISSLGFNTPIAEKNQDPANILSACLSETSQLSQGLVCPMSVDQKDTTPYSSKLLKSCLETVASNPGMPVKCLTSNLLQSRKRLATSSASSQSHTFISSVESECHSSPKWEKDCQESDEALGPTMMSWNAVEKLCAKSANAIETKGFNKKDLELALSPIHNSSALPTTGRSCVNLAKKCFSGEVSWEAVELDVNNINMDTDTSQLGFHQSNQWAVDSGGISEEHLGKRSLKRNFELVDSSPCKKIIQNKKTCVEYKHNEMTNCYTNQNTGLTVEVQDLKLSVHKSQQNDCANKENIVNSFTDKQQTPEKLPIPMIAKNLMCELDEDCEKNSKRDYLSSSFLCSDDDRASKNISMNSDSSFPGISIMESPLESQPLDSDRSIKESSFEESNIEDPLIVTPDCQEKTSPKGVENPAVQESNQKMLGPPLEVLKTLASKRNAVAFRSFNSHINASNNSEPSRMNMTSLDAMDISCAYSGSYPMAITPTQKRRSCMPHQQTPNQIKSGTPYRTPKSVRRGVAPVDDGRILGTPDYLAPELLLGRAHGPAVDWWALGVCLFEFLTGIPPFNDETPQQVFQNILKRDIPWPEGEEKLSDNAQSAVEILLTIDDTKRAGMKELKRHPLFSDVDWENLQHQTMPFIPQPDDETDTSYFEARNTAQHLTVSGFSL
Method: as §1

[5] = biological target: T5, GSK3beta (Homo sapiens, UniProt P49841)
T5 construct: purchased ProQinase (Freiburg, Germany)
Method: as §1

[6] = biological target: T6, RAF1 YDYD (Homo sapiens, UniProt P04049, Y340D/Y341D)
T6 construct: purchased ProQinase (Freiburg, Germany)
Method: as §1

[7] = biological target: T7, PLK1 (Homo sapiens, UniProt P53350)
T7 construct: purchased ProQinase (Freiburg, Germany)
Method: as §1

T7 sequence (P53350 whole entry): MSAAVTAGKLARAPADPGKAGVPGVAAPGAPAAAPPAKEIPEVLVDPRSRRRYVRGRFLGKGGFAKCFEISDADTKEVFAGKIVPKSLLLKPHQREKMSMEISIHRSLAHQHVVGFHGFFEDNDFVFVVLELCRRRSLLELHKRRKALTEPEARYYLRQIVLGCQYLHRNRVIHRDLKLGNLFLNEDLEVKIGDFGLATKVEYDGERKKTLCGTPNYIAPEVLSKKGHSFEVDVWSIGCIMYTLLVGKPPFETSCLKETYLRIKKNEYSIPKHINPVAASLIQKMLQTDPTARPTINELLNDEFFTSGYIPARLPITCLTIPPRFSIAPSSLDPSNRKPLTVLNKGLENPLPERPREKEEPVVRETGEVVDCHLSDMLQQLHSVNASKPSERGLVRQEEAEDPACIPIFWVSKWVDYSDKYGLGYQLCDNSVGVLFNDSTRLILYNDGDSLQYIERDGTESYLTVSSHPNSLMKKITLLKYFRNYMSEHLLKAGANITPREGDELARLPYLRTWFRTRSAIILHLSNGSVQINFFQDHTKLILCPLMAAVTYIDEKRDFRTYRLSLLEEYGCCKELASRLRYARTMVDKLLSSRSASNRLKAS
T5 sequence (P49841 whole entry): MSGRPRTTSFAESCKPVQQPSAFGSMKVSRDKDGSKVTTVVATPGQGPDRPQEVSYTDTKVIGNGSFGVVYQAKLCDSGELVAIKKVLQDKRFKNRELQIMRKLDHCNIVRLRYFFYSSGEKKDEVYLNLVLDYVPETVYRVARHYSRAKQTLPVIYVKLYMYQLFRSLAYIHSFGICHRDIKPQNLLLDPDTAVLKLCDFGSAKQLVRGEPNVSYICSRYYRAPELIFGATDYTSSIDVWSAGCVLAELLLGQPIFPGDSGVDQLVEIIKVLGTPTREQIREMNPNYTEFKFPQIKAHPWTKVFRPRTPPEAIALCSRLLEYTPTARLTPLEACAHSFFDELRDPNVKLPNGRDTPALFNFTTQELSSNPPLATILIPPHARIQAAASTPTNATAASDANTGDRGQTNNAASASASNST
T1 sequence (Q86Y07 whole entry): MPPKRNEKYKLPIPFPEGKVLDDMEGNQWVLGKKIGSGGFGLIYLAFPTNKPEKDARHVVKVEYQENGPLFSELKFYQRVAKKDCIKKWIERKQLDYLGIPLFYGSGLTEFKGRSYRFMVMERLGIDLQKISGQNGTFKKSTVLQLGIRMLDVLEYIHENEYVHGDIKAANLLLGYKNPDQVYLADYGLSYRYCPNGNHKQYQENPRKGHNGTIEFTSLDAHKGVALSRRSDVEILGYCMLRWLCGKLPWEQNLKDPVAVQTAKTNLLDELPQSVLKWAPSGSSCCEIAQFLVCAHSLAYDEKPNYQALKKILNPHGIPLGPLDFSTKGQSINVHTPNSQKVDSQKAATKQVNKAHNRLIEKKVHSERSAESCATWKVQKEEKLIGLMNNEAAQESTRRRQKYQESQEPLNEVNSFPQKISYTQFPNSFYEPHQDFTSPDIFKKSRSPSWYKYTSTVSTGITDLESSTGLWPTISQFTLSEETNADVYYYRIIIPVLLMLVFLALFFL

SMILES	Residual activity ([1]; 1.0E-05 M)	Residual activity ([1]; 1.0E-06 M)	Residual activity ([2]; 1.0E-05 M)	Residual activity ([2]; 1.0E-06 M)	Residual activity ([3]; 1.0E-05 M)	Residual activity ([3]; 1.0E-06 M)	Residual activity ([4]; 1.0E-05 M)	Residual activity ([4]; 1.0E-06 M)	Residual activity ([5]; 1.0E-05 M)	Residual activity ([5]; 1.0E-06 M)	inhibition of RAF1 ([6]; 1 µM)	inhibition at 10 µM [6]	Residual activity ([6]; 1.0E-05 M)	Residual activity ([6]; 1.0E-06 M)	Residual activity ([7]; 1.0E-05 M)	Residual activity ([7]; 1.0E-06 M)	inhibition at 1 µM ([6]; 1 µM)
O=C(Cc1ccccc1)Nc1ccc(F)c(Nc2ccc3c(c2)CCCCC3=O)c1 [Compound 100]	114 % of control	113 % of control	91 % of control	101 % of control	114 % of control	118 % of control	92 % of control	99 % of control	88 % of control	88 % of control	inhibited considerably	≥ 50%	3 % of control	14 % of control	90 % of control	103 % of control	–
O=C(Nc1ccc(F)c(Nc2ccc3c(c2)CCCCC3=O)c1)c1cccc(F)c1 [Compound 109]	108 % of control	107 % of control	92 % of control	92 % of control	94 % of control	104 % of control	99 % of control	94 % of control	90 % of control	82 % of control	–	≥ 50%	12 % of control	36 % of control	96 % of control	94 % of control	≥ 50%
